Test results: publication PMC6382862 (Scientific Reports, 2019)
Where “and” joins values, the source holds several entries; their conditions need not be identical. Equal entries are not always repeated. Values belong to the molecule of their own block, whether it stands above or below them.

Columns and labels:
PCSK9 = system: PCSK9; parameters: method as in PMID 28825733; details: lower affinity than Pep2-8, still detectable by SPR; cited from earlier work
HepG2 cells = test: Fluorescent LDL uptake cell based assay in PCSK9-treated HepG2 cells; parameters: species or system human; details: for Times more active than Pep2-8 in restoring LDL uptake: compared with 50 µM Pep2-8; for LDL-uptake restored (versus untreated cells): then LDL-DyLight 550 2 h, PCSK9 alone reduced uptake by 32.7%, mean of three independent experiments
Procedure: (§1) The HepG2 cell line was cultured in DMEM high glucose with stable L-glutamine supplemented with 10% FBS, 100 U/mL penicillin, 100.0 µg/mL streptomycin and incubated at 37 °C under 5% CO2 atmosphere. HepG2 cells were used for no more than 20 passages after thawing, because the increase of the number of passages may change the cell characteristics and impair assay results.
HepG2 cells (3.0 × 10^4/well) were seeded in black 96-well plates and kept in complete growth medium for 2 d before treatment. The third day, they were treated with 4.0 μg/mL PCSK9 and 4.0 μg/mL PCSK9 + peptides (0.5-50.0 µM), and vehicle (H2O) for 2 h with at 37 °C under 5% CO2 atmosphere. At the end of the treatments, the culture medium was replaced with 50.0 μl/well LDL-DyLight™ 550 working solution (Cayman Chemical Company, Ann Arbor, MI, US). The cells were additionally incubated for 2 h at 37 °C and then the culture medium was aspirated and replaced with PBS (100.0 μl/well). The degree of LDL uptake was measured using the Synergy H1 fluorescent plate reader from Biotek (excitation and emission wavelengths 540 and 570 nm, respectively).

[1] = target: T1, PCSK9/LDLR PPI (His-tagged PCSK9, recombinant LDLR-AB domain) (Homo sapiens, UniProt Q8NBP7); test: In vitro PCSK9-LDLR binding assay (CycLex); details: peptide 100 µM; absorbance 450 nm; three independent experiments in duplicate
T1 construct: purchased CycLex Co., Nagano, Japan
Procedure: Biochemical experiments, based on a PCSK9-LDLR binding assay, were performed in order to compare the ability of each derivative to impair the PPI between PCSK9 and LDLR. […] Initially, in agreement with recently published conditions[27], a preliminary screening was performed at the fixed concentration of 100 µM.
The absorbance at 450 nm was measured using the Synergy H1 fluorescent plate reader (Biotek, Bad Friedrichshall, Germany).

[2] = system: LDLR protein level on HepG2 cell surface; test: In cell western (ICW) assay of LDLR protein level on HepG2 cell surface in presence of PCSK9; assay type: cell-based, human; details: PCSK9 alone decreased LDLR by 37.62%, mean of three independent experiments
Procedure: This reliable technique was used to investigate the effects of the mutated peptides on the modulation of the LDLR protein levels localized on the HepG2 cell surface. Taking this into consideration, to evaluate only the LDLR surface levels no permeabilization step was included in the applied procedure.
as §1
A total of 3.0 × 10^4 HepG2 cells/well were seeded in 96-well plates, respectively. The following day, cells were washed with PBS and then starved overnight (O/N) in DMEM without FBS.
Treated HepG2 cells were fixed in 4% paraformaldehyde for 20 min at room temperature (RT). Cells were washed 5 times with 100.0 µL of PBS/well (each wash was for 5 min at RT) and the endogenous peroxides activity was quenched adding 3% H2O2 in PBS for 20 min at RT. Non-specific sites were blocked with 100.0 µL/well of 5% BSA in PBS for 1.5 h at RT. LDLR primary antibody solution (1:3000 in 5% BSA in PBS, 25 µL/well) was incubated O/N at 4 °C. Subsequently, the primary antibody solution was discarded and each sample was washed 5 times with 100.0 µL/well of PBS (each wash was for 5 min at RT). Goat anti-rabbit Ig-HRP secondary antibody solution (1:6000 in 5% BSA in PBS, 50.0 µL/well) was added and incubated for 1 h at RT. The secondary antibody solution was washed 5 times with 100.0 µL/well of PBS (each wash for 5 min at RT). Freshly prepared TMB substrate (100.0 µL/well), was added and the plate was incubated at room temperature (RT) until desired color was developed. The reaction was then stopped with 2 M H2SO4 and the absorbance at 450 nm was measured using the Synergy H1 fluorescent plate reader from Biotek. Cells were stained by adding 1 × Janus green stain, incubating for 5 min at RT. The dye was removed and the sample washed 5 times with water. Afterward 0.1 mL 0.5 M HCl per well were added and incubated for 10 min. After 10 sec shaking, the OD at 595 nm was measured using the Synergy H1 fluorescent plate reader from Biotek.

[3] = system: cell surface LDLR, HepG2 cells; details: cited from earlier work
Procedure: It is useful to underline, that in our case the cells were treated with a lower PCSK9 concentration (4 μg/mL) and for a shorter time (2 h) in respect to the conditions applied by Zhang and co-w ... || In a recent study, Zhang and co-workers[18] have developed new antagonists. […] In particular, in presence of PCSK9, Fusion 1 peptid ...

PCSK9/LDLR PPI = details: read-out: IC50 of PCSK9/LDLR PPI inhibition; cited from earlier work
Source text: Recently, innovative technological solutions for controlling peptide metabolism and advanced administration strategies[14]–[16] have renewed the interest for novel inhibitory peptides. […] Another study, carried out by us, has identified two peptides able to inhibit the PCSK9/LDLR PPI[11]: they derive from the hydrolysis of lupin protein and have the following sequences, […] (P5) and […] (T9).

[4] = target: T2, recombinant His-tagged PCSK9 protein (proprotein convertase subtilisin/kexin type 9) (UniProt Q8NBP7 31-692); test: ELISA; CycLex in vitro PCSK9-LDLR binding assay (colorimetric semi-quantitative solid phase binding assay); wells coated with recombinant LDLR-AB domain; His-tagged PCSK9 added with peptide (1.0-300.0 uM; first screen at 100 uM); bound His-tagged PCSK9 read as absorbance at 450 nm; competition; details: both partners purified
T2 construct: Proprotein convertase subtilisin/kexin type 9 (PCSK9), recombinant, of the CycLex kit; the functional rows use this molecule; also called PCSK9-WT

[5] = peptide 0.5 µM + 4.0 µg/mL PCSK9, 2 h
[6] = peptide 1.0 µM + 4.0 µg/mL PCSK9, 2 h
[7] = peptide 0.5 µM + 4 µg/mL PCSK9, 2 h
[8] = peptide 1 µM + 4 µg/mL PCSK9, 2 h

T2 sequence (Q8NBP7 31-692): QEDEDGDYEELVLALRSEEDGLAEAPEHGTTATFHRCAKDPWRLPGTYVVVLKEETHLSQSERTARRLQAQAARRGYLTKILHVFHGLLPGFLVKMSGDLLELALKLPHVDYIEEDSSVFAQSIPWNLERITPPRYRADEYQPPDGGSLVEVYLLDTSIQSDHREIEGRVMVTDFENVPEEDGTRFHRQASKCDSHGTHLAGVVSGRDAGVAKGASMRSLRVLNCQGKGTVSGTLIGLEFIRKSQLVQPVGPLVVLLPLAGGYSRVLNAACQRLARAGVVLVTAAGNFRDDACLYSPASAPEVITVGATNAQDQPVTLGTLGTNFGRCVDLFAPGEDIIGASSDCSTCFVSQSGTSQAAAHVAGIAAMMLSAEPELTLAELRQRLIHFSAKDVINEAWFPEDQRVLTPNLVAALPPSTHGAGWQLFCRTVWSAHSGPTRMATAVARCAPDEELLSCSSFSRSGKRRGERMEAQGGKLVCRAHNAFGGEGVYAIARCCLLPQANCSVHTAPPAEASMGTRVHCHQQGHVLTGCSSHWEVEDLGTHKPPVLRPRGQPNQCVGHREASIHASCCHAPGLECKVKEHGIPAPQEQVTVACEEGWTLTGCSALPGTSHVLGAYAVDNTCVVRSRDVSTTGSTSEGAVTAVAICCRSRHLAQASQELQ
T1 sequence (Q8NBP7 153-692): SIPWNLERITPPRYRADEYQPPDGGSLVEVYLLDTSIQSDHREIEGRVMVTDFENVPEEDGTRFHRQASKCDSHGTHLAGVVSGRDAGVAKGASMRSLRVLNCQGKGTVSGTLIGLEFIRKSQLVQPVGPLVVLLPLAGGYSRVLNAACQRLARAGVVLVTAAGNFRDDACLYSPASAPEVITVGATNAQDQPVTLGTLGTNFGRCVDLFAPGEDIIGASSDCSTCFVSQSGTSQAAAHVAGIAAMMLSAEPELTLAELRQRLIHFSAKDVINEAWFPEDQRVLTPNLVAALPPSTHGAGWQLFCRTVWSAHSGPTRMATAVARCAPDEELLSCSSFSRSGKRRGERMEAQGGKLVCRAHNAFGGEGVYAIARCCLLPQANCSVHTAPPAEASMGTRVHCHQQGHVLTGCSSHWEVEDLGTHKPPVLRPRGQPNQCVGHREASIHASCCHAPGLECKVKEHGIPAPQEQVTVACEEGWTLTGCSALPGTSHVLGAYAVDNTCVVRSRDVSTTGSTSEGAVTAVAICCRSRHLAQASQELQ
T1 sequence (Q8NBP7 31-152 partner limits assumed): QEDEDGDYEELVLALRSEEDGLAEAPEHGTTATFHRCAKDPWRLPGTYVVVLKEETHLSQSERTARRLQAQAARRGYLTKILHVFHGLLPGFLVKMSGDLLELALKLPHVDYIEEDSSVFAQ

Molecule: Ac-TAFTSWEEYLDWV-NH2 [[V2A]Pep2-8, alanine single-point mutant of Pep2-8, computational only]
- Affinity on PCSK9 (PCSK9): low affinity

Molecule: Ac-TVFTSWEEYLDWV-NH 2 [Pep2-8, reference compound]
- LDL-uptake restored (versus untreated cells) (HepG2 cells; peptide 50 µM + 4.0 µg/mL PCSK9, 2 h): 98.9%
- LDLR protein level restored (versus control cells) ([2]; peptide 50 µM + 4 µg/mL PCSK9, 2 h): 83.36% and 83.4%
- Surface LDLR levels renewed ([3]; FACS, 50 μM peptide, 4 h co-incubation with 15 μg/mL PCSK9, ref Zhang and co-workers): about 70%

Molecule: LILPKHSDAD [Peptide P5]
- IC50 (PCSK9/LDLR PPI): 1.6 µM

Molecule: TVFTSWEEYLDWV-GSC- CRLPWNLQRIGLPG [Fusion 1 peptide]
- LDLR restored in presence of PCSK9 ([3]; HepG2 cells, 5.0 µM (tested 0.1 to 5.0 µM)): 90%
- Fold more potent than reference peptide Pep2-8 in preventing PCSK9-mediated cell surface LDLR degradation ([3]; HepG2 cells): about 20 fold

Continued, in another order:

- Impairment of PCSK9-LDLR binding versus control [1]: −93.0%
Molecule: Ac-TVFRSWEEYLDYV-NH2 [[T4R,W12Y]Pep2-8]
- Times more active than Pep2-8 in restoring LDL uptake (HepG2 cells): ~5 fold
- LDL-uptake restored (versus untreated cells) (HepG2 cells; [5]): 81.6%
- LDL-uptake restored (versus untreated cells) (HepG2 cells; [6]): 88.0%
- LDL-uptake restored (versus untreated cells) (HepG2 cells; peptide 10.0 µM + 4.0 µg/mL PCSK9, 2 h): 92.5%
- LDLR protein level restored (versus control cells) [2, 7]: 68.1%
- LDLR protein level restored (versus control cells) [2, 8]: 75.3%
- LDLR protein level restored (versus control cells) ([2]; peptide 10.0 µM + 4 µg/mL PCSK9, 2 h): 88.3%

- Impairment of PCSK9-LDLR binding versus control [1]: −69.8%
Molecule: Ac-TVFTSWEEALDWV-NH2 [[Y9A]Pep2-8]
- Times more active than Pep2-8 in restoring LDL uptake (HepG2 cells): about 50 fold
- LDL-uptake restored (versus untreated cells) (HepG2 cells; [5]): 83.4%
- LDL-uptake restored (versus untreated cells) (HepG2 cells; [6]): 99.0%
- LDLR protein level restored (versus control cells) [2, 7]: 81.9%
- LDLR protein level restored (versus control cells) [2, 8]: 89.9%

- IC50 [4]: 14.5 µM
- percent change of PCSK9-LDLR binding at 100 µM peptide versus the control [4]: -93%
B1: [T4R,W12Y]Pep2-8 (Ac-TVFRSWEEYLDYV-NH2) (peptide)
peptide: Ac-TVFRSWEEYLDYV-NH2
notes: analog of Pep2-8 with T4R and W12Y, designed by computation; source: synthetic peptide (bought: PRIMM Biotech / GenScript, >95% purity)

- IC50 [4]: 27.1 µM
- percent change of PCSK9-LDLR binding at 100 µM peptide versus the control [4]: -69.8%
B2: [Y9A]Pep2-8 (Ac-TVFTSWEEALDWV-NH2) (peptide)
peptide: Ac-TVFTSWEEALDWV-NH2
notes: analog of Pep2-8 with Y9A, designed by computation; source: synthetic peptide (bought: PRIMM Biotech / GenScript, >95% purity)
